Results taken from US20250032447A1, “USE OF UROLITHIN IN THE REMISSION PHASE OF A PRECEDING CANCER THERAPY” (SOCIETE DES PRODUITS NESTLE S.A., priority 2022, published 2025).
“Also recorded” adds a separate entry of the source.

Assays:
B16 melanoma [1] = experiment: B16 melanoma preventive effect, diet on/off; format: in vivo, B57BL/6 mice; details: day 17, 5×10^5 B16 cells s.c.
Excerpt: To test whether Urolithin A feeding would have a preventive effect by boosting the immune system inventors performed the following experiment. A less immunogenic tumor model B16 melanoma was chosen for this experiment. 10 mice received ad libitum DMSO diet (see above), and 10 mice received ad libitum Urolithin A enriched diet (see above) for 4 weeks. Then 5 mice from DMSO diet were placed in conventional diet (provided by Animal facility), this group was called DMSO on/off. The remaining 5 mice were kept in DMSO diet and named DMSO group. 5 mice from Urolithin diet were placed in conventional diet (provided by Animal facility), this group was called UroA on/off. The remaining 5 mice were kept in […]. After one week, 5×10^5 B16 cells were subcutaneously injected in the right flank of B57BL/6 mice. Tumor engraftment, diet treatment and re-challenge experiments were as described initially in Example 1.

[2] = Initial tests in mice fed diet supplemented with UroA; format: in vivo
[3] = tested on: MC38 colorectal cancer cells; experiment: MC38 tumor re-challenge of survivor mice; format: in vivo
Excerpt: For re-challenge experiments, survivor mice were removed from the UroA diet and placed in conventional diet (diet provided by the animal facility of University of Lausanne) for one week. During this week one mouse developed tumor and was excluded from the experiment. The remaining 3 mice were subcutaneously injected with 5×10^5 MC38 cancer cells. At the same time, another 5 mice (named control cage) were subcutaneously injected with 5×10^5 MC38 cancer cells. This second tumor injection was done on the left flank of the mouse to discriminate between tumor arising from the first injection from tumor arising from the second, re-challenge, injection.
Then, it was tested whether UroA mediated tumor control was exerted through adaptive immune response. It was assumed as a working hypothesis that memory T cells with antitumoral activity would have been generated in the survivor hosts, which would promptly react against a second tumor graft. To test this hypothesis, survivor mice from the UroA group were injected after 7 weeks with the same cancer cell line (MC38) in the opposite flank (FIG. 2A). To exclude any possible contribution of UroA in tumor growth, the mice survivor mice and a control cage group were kept in conventional food without UroA for one week before tumor injection.

B16 melanoma [4] = experiment: B16 melanoma tumor challenge in mice fed UroA enriched diet; format: in vivo, B57BL/6 mice; details: 5 mice; Urolithin A enriched diet ad libitum 4 weeks before B16 injection
Description: The B16 cell line were maintained in DMEM+GlutaMAX (Thermofisher) supplemented with 10% FBS (Gibco), and 100 U/ml penicillin/streptomycin (Thermofisher). B57BL/6 mice were purchased from ENVIGO and housed in the animal facility of the University of Lausanne. One week upon arrival mice were fed ad libitum with Urolithin A enriched diet. Urolithin A diet was prepared as follow: 300 mg of Urolithin A (Novalix) was dissolved in DMSO (Applichem) and mixed with 1 kg of “2016 Irradiated Global 16% Rodent diet ground” (ENVIGO) corresponding to a dose of 50 mg/kg/day. For control diet, hereafter named DMSO diet, DMSO (Applichem) was mixed with 1 kg of “2016 Irradiated Global 16% Rodent diet ground” (ENVIGO). The diets were aliquoted in small balls and let them dry under sterile conditions. Mice were fed ad libitum for 4 weeks with DMSO diet or Urolithin A diet before tumor engraftment. For tumor engraftment, each mouse was injected subcutaneously with 5×10^5 MC38 cancer cells or 1×10^5 B16 cancer cells into the right flank. For the MC38 and B16 experiments 5 mice received ad libitum DMSO diet, and 5 mice received ad libitum Urolithin A enriched diet for 4 weeks before tumor injection. Mice were sacrificed at humane endpoint as established by the Swiss federal regulation and approved by cantonal authorities. […]

MC38 cells = experiment: MC38 tumor challenge in immunodeficient NSG mice; format: in vivo; details: for effect on tumor growth rate and size: NSG immunodeficient mice, vs DMSO control
Excerpt: To validate that the Urolithin A supplementation enhances the adaptive immune response 5×10^5 MC38 cells were subcutaneously injected in the right flank of the immunodeficient mice NSG (NOD.Cg-Prkdc^sc^i^d II2rg^tm1Wil/SzJ) previously fed with Urolithin A enriched diet for 4 weeks. Tumor volumes were estimated by using the formula: tumor volume=(length×width×width)/2. 5 mice recede the DMSO diet and 5 mice received the Urolithin A enriched diet. Both the 5 mice receiving the DMSO diet and the 5 mice receiving the Urolithin A enriched diet developed tumors.

[5] = tested on: MC38 colorectal cancer cells; experiment: MC38 tumor challenge in mice fed UroA enriched diet; format: in vivo, C57BL/6 mice
Excerpt: Cell line and in vitro culture: An MC38 colorectal cancer cell line and a B16 cell line were used. The MC38 colorectal cancer cell line (Corbett el al., Can Res, 1975) is a murine colon adenocarcinoma cell line from a C57BL/6 mouse. The cells are adherent and have a fibroblast morphology. MC38 cells will form tumors and metastases post implantation into syngeneic C57BL/6 mice or immunocompromised mice. The B16 melanoma is a murine tumor cell line used for research as a model for human skin cancers. Both MC38 and B16 cancer cell lines are commercially available.
The MC38 colorectal cancer cell line was maintained in RPMI 1640 media (Thermofisher) supplemented with 10% FBS (Gibco), 50 μM beta-mercaptoethanol (Thermofisher), 100 U/ml penicillin/streptomycin (Thermofisher), 1 mM Sodium Pyruvte (Thermofisher).
B57BL/6 mice were purchased from ENVIGO and housed in the animal facility of the University of Lausanne. One week upon arrival mice were fed ad libitum with Urolithin A enriched diet. Urolithin A diet was prepared as follow: 300 mg of Urolithin A (Novalix) was dissolved in DMSO (Applichem) and mixed with 1 kg of “2016 Irradiated Global 16% Rodent diet ground” (ENVIGO) corresponding to a dose of 50 mg/kg/day. For control diet, hereafter named DMSO diet, DMSO (Applichem) was mixed with 1 kg of “2016 Irradiated Global 16% Rodent diet ground” (ENVIGO). The diets were aliquoted in small balls and let them dry under sterile conditions. Mice were fed ad libitum for 4 weeks with DMSO diet or Urolithin A diet before tumor engraftment.
For tumor engraftment, each mouse was injected subcutaneously with 5×10^5 MC38 cancer cells or 1×10^5 B16 cancer cells into the right flank.
For the MC38 and B16 experiments 5 mice received ad libitum DMSO diet, and 5 mice received ad libitum Urolithin A enriched diet for 4 weeks before tumor injection. Mice were sacrificed at humane endpoint as established by the Swiss federal regulation and approved by cantonal authorities. Examples of humane endpoint are: tumor size exceeding […], loss of weight (15% of the previous time point) and sign of distress. […] These mice were named survivor mice.
To test this hypothesis, mice were fed ad libitum with UroA diet (see above, Urolithin A diet) and control diet (DMSO, see above) for 4 weeks. Colorectal cancer cells MC38 were subcutaneously injected in the right flank of the mice (FIG. 1A). Tumor volumes were estimated by using the formula: tumor volume=(length×width×width)/2.

With O=c1oc2cc(O)ccc2c2ccc(O)cc12 [Urolithin A, 3,8-dihydroxyurolithin] the average tumor size (B16 melanoma [1]; UroA group (kept on diet)) was 200 mm^3, the average tumor size (B16 melanoma [1]; UroA on/off group (4 weeks diet, then conventional diet one week before injection)) was 200 mm^3 and the “overall quality of HSCs” value [2] was “increased”. The splenocytes count [2] was “increased”, the “average tumor size upon re-challenge” value ([3]; survivor mice re-injected with MC38 in opposite flank after 7 weeks, conventional food without UroA for one week before injection) was 100 mm^3 and the survival upon re-challenge ([3]; survivor mice vs freshly challenged control cage group, listed as UroA) was “better tumor control capacity and survival; also recorded: improved overall survival”. The average tumor size (B16 melanoma [4]) was 70 mm^3, the “effect on tumor growth rate and size” value (MC38 cells) was “no change in tumors growth rate and volume” and the “effect on tumor growth rate and size” value (MC38 cells; listed as UroA) was “no effect on tumor size”. The tumor size at last timepoint (MC38 cells; day 18, NSG mice, Urolithin A enriched diet 4 weeks, 5×10^5 MC38 cells s.c.) was 1000 mm³, the average tumor size ([5]; Exp1, 5 mice, Urolithin A enriched diet ad libitum 4 weeks (50 mg/kg/day) before s.c. injection of 5×10^5 MC38 cells) was 50 mm^3 and the “tumor engraftment and growth” value ([5]; Exp1 and Exp2, UroA enriched diet ad libitum vs DMSO diet) was “significantly reduced”. The “mice that developed tumors bigger than 100 mm^3” value ([5]; Exp2, out of 3 mice on Urolithin A enriched diet) was “one”, the “mice that did not develop any tumor” value ([5]; MC38, mice fed Urolithin A diet) was 4 out of 5 and the overall survival ([5]; UroA diet compared to DMSO diet, MC38 model) was “improved overall survival”.
